According to patent US20260308196A1, “HELICASE INHIBITORS” (H. LEE MOFFITT CANCER CENTER AND RESEARCH INSTITUTE, INC., priority 2023, published 2026):

System: T1, hCMG helicase
T1 construct: fork-unwinding strand displacement assay with ATP
Assay: helicase assay (fork-unwinding; strand displacement assay)
Type: biochemical, human
Conditions: 20 uL reactions: 1 uL DMSO or drugs, 2 uL hCMG (~15 fmol enzyme), 0.5 mM ATP; RF1-134 compared to CA1 (100% inhibition); drug concentration not given
Method: For 20 uL reactions: 1 uL DMSO or drugs, 2 uL hCMG (~15 fmol enzyme), and 0.5 mM ATP were added. The noviose sugar (purple box; called RF1-134) was generated using synthetic chemical approaches. […] CA1 refers to coumermycin-A1.

SMILES: CO[C@H]1[C@H](OC(=O)c2ccc(C)[nH]2)[C@H](O)[C@@H](Oc2ccc3c(O)c(NC(=O)c4c[nH]c(C(=O)Nc5c(O)c6ccc(O[C@H]7OC(C)(C)[C@@H](OC)[C@H](OC(=O)c8ccc(C)[nH]8)[C@@H]7O)c(C)c6oc5=O)c4C)c(=O)oc3c2C)OC1(C)C [CA1, coumermycin-A1]
- inhibition of hCMG helicase activity: 100%
